# What was measured:
# [1] = system: HIV-1 AD8; test: Inhibition of antiviral activity by purified bovine serum albumin (TZM-bl, AD8); assay type: cell-based
# Method: To confirm the binding of compound 2 to serum albumin, infection was performed in presence of different concentrations of purified bovine serum albumin (BSA, Sigma Aldrich) starting from the concentration that is usually present in FBS serum (35 mg/mL, 1X) and increasing to a five-fold concentration (175 mg/mL) up to a ten-fold concentration (350 mg/mL). […] After one hour, the mixture was added to 40.000 TZM-bl cells/well plated in DMEM supplemented with 50 μg/mL penicillin, 50 μg/mL streptomycin, 30 μg/mL DEAE-dextran and 10% FBS in a 96-well plate. After two days the infection was evaluated through a CPRG assay.
# [2] = system: NL4.3 HIV strain; test: Antiviral activity in microbicide gel formulation, transwell experiment, TZM-bl cells; assay type: cell-based, HIV-1; conditions: Human immunodeficiency virus 1, gel at 50%
# Method: All the semi-solid formulations were prepared adding at the pre-gel solution reported above hydroxyethyl cellulose (HEC) (1.8% w/v). In all samples, 0.2% v/v propionic acid was added to aqueous solution in order to preserve form bacteria and mold contamination. HEC was dispersed in the pre-gel solution at 25°C under magnetic stirring, overnight.
# Antiviral activity of compound 2 on NL4.3 HIV strain was evaluated also in a gel formulation. To reproduce more physiological conditions, TZM-bl cells were seeded into transwells and the gel was applied onto the cell monolayer at 50% fixed concentration with serial drug dilutions as previously described. Briefly, 4x10^4 TZM-bl cells were plated into each transwell apical chamber of a 24-well plate (pore size 3μm and diameter 6,5 mm, Corning) containing medium in the bottom plate and cultured overnight. For efficacy testing, 60 TCID50 of virus was added to each apical well in the presence of 100 μL of compound 2 gel, tenofovir gel or blank gel at the final drug concentrations of 25μM, 10 μM and 5 μM. Inhibition of infection was determined as previously based on deviations from blank gel.
# [3] = system: HIV-1 NL 4.3 WT; test: Antiviral activity on human CD4+ T lymphocytes, NL4.3 WT; assay type: cell-based; conditions: Human immunodeficiency virus 1; human CD4+ T lymphocytes; read-out: NL 4.3 WT EC50
# Method: The antiviral activity and cytotoxicity of compounds 2, 9e and 9f was tested also on freshly purified human CD4^+ T lymphocytes obtained from healthy blood donors (informed consent available) as described previously on HIV laboratory strain NL4.3 and AD8 [33, 34].
# [4] = system: HSV-2 acyclovir resistant; test: HSV-2 acyclovir resistant plaque reduction assay on Vero cells; assay type: cell-based; conditions: Human alphaherpesvirus 2, Vero, read-out: HSV-2 acyclovir resistant EC50
# Method: Clinical isolates of HSV-1 and HSV-2 were kindly provided by Prof. M. Pistello, University of Pisa, Italy. HSV-1 and HSV-2 strains were propagated and titrated by plaque assay on Vero cells. A HSV-2 strain with phenotypic resistance to acyclovir was generated by serial passage in the presence of increasing concentrations of acyclovir, as previously described.
# The effect of the rhodanine derivatives on HSV infection was evaluated by plaque reduction assay. Vero cells were pre-plated 24 h in advance in 24-well plates at a density of […]. Increasing concentrations of compounds were mixed with HSV-2 (MOI 0.001 pfu/cell) or HSV-2 acyclovir resistant (MOI 0.001) or HSV-1 (MOI 0.0005) or and incubated for 1 hour at 37°C. The mixtures were subsequently added to the cells, which were then incubated at 37°C for 2 h. […] After further incubation at 37°C for 24 h (HSV-2 and HSV-2 R Acy) or 48 h (HSV-1), cells were fixed and stained with 0.1% crystal violet in 20% ethanol and viral plaques counted. […] The selectivity index (SI) was calculated by dividing the CC50 by the EC50 value.
# All results are presented as the mean values from three independent experiments. The EC50 values for inhibition curves were calculated by regression analysis using the software GraphPad Prism (GraphPad Software, San Diego, California, U.S.A.) by fitting a variable slope-sigmoidal dose–response curve. […]
# [5] = system: recombinant HIV-1 integrase Q148H, G140S; test: Antiviral activity on human CD4+ T lymphocytes, integrase mutant Q148H, G140S; assay type: cell-based; conditions: Human immunodeficiency virus 1, read-out: Q148H, G140S EC50
smiles,measurement,setting,value
O=C(O)c1ccc(-c2ccc(/C=C3\SC(=S)N(Cc4ccc(Cl)cc4)C3=O)o2)cc1O [Compound 2],"reduction of antiviral activity with physiological BSA, compound at 400 nM","[1]; 1X = 35 mg/mL BSA, 400 nM",about 50%
same,"loss of antiviral activity with physiological BSA, compound at 2 μM","[1]; 1X = 35 mg/mL BSA, 2 μM",20%
same,antiviral activity with BSA concentration increased 5 to 10 folds,"[1]; 175-350 mg/mL BSA, 400 nM",complete loss of activity
same,EC50,[2],13 µM
same,EC50,[3],0.013 ± 0.003 µM
same,EC50,[4],0.0107 ± 0.00634 µM
same,EC50,[5],0.009 ± 0.002 µM
